This is an account of results in patent US4476328A, “Process for producing 3,3,3-trifluoropropyl substituted phenol” (Kureha Kagaku Kogyo Kabushiki Kaisha, priority 1980, dated 1984).

This data set is described as follows: electrical properties (dielectric constant, dielectric loss, volume resistivity). It is filed as physicochemical.
Where [1] appears, read: Table 5, Example 6, temperature not given.

Consider “n-octyl-( 3,3,3-trifluoropropyl)benzene [n-octyl(3,3,3-trifluoropropyl)benzene]”, for which, under setting [1], the Dielectric constant is 4.18, the “Dielectric loss (tanδ)” value is 0.095% and the Volume resistivity is given as 1.08 × 10^14 Ω·cm. Where the note is “Table 6, Example 7, at 20° C.”, the Dielectric constant is on record as 3.89, the “Dielectric loss (tanδ)” value was 0.015% and the Volume resistivity is reported as 8.79 × 10^14 Ω·cm.
